Data reported in patent US8404708B2, “Dual NK1/NK3 receptor antagonists” (Hoffmann-La Roche Inc., priority 2004, dated 2013).
Read-outs that look alike come from different tables or passages of the source.

How the values were obtained:
[1] = target: T1, Recombinant human NK3 (hNK3) receptor (Homo sapiens, UniProt P29371); test: NK3 receptor binding, [3H]SR142801 displacement, membrane preparations
T1 construct: expressed in transfected cells
T1 sequence (P29371 1-465): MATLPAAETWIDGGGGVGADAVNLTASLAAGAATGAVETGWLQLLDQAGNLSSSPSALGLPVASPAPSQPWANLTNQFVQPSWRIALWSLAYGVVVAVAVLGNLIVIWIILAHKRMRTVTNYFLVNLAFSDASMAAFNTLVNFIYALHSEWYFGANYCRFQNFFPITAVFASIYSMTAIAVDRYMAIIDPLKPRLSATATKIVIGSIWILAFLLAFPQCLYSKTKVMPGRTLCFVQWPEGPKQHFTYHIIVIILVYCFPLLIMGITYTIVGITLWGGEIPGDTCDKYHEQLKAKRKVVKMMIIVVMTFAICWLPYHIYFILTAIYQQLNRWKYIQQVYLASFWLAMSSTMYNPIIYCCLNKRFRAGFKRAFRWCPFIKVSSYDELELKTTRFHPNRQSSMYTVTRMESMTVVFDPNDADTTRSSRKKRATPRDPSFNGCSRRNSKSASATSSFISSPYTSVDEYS
Procedure, shortened: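 Buffer: Tris-HCl 50 mM pH 7.4, BSA 0.1%, MnCl2 4 mM, phosphoramidon 1 μM. ~2.5 μg membrane/well, 90 min RT. NSB with SB222200 (10 μM). Vacuum filtration over 0.3% PEI-treated GF/C, cold Tris/BSA washes, scintillation count; duplicates, ≥2 experiments.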

[2] = phase II trial, cited from earlier work
human NK1 receptor = human NK1 receptor (Homo sapiens, UniProt P25103); test: NK1 receptor binding, [3H]substance P displacement, CHO cell membranes
[3] = second value of the cell pKi NK1/NK3, hNK3 receptor, [3H]SR142801
[4] = second value of the cell NK1/NK3, read-out: pKi NK3 (converted)
[5] = first value of the cell NK1/NK3, read-out: pKi NK1 (converted)
[6] = first value of the cell pKi NK1/NK3, human NK1 receptor, [3H]substance P

human NK1 receptor, sequence (P25103 whole entry): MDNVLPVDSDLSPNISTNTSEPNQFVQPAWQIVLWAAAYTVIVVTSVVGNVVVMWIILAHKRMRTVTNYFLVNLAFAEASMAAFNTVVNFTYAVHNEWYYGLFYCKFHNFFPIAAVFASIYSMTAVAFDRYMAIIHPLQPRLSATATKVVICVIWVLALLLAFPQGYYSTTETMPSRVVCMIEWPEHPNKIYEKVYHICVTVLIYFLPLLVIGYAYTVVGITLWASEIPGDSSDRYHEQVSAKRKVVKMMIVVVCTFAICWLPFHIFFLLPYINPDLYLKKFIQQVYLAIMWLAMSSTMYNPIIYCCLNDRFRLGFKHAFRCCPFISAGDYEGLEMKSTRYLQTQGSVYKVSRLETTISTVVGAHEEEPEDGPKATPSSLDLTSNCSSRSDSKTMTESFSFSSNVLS

SMILES | Ki [1, 4] [nM] | Ki (human NK1 receptor; [5]) [nM] | Ki [1, 3] [nM] | Ki (human NK1 receptor; [6]) [nM] | further results
CN(C(=O)C(C)(C)c1cc(C(F)(F)F)cc(C(F)(F)F)c1)c1cnc(NCCO)cc1-c1ccccc1Cl [Example 67, 2-(3,5-Bis-trifluoromethyl-phenyl)-N-[4-(2-chloro-phenyl)-6-(2-hydroxy-ethylamino)-pyridin-3-yl]-N-methyl-isobutyramide] |  |  |  |  | pKi NK3 [1, 3]: 7.94; melting point: 117 to 118 °C
CC(=O)N(C)C1(c2ccccc2)CCN(CCC[C@]2(c3ccc(Cl)c(Cl)c3)CCCN(C(=O)c3ccccc3)C2)CC1 [SR 142,801, Osanetant] |  |  |  |  | activity on positive symptoms of schizophrenia ([2]; altered behavior, delusion, hallucinations, extreme emotions, excited motor activity, incoherent speech): active; activity in the treatment of negative symptoms of schizophrenia ([2]; depression, anhedonia, social isolation, memory and attention deficits): inactive
Cc1ncccc1-c1cc(N2C[C@@H](O)C[C@H]2CO)ncc1N(C)C(=O)C(C)(C)c1cc(C(F)(F)F)cc(C(F)(F)F)c1 [Example 255, (2S,4S)-2-(3,5-Bis-trifluoromethyl-phenyl)-N-[6′-(4-hydroxy-2-hydroxymethyl-pyrrolidin-1-yl)-2-methyl-[3,4′]bipyridinyl-3′-yl]-N-methyl-isobutyramide] | 10.7 | 0.955 |  |  | 
CSc1ccccc1-c1cc(N2C[C@H](O)C[C@H]2CO)ncc1N(C)C(=O)C(C)(C)c1cc(C(F)(F)F)cc(C(F)(F)F)c1 [Example 217, (2S,4R)-2-(3,5-Bis-trifluoromethyl-phenyl)-N-[6-(4-hydroxy-2-hydroxymethyl-pyrrolidin-1-yl)-4-(2-methylsulfanyl-phenyl)-pyridin-3-yl]-N-methyl-isobutyramide] | 2.4 | 1.05 |  |  | 
Cc1cc(F)ccc1-c1cc(N2CC[C@H](N(C)S(C)(=O)=O)C2)ncc1N(C)C(=O)C(C)(C)c1cc(C(F)(F)F)cc(C(F)(F)F)c1 [Example 105, (S)-2-(3,5-Bis-trifluoromethyl-phenyl)-N-{4-(4-fluoro-2-methyl-phenyl)-6-[3-(methanesulfonyl-methyl-amino)-pyrrolidin-1-yl]-pyridin-3-yl}-N-methyl-isobutyramide] |  |  | 5.25 | 1.02 | 
Cc1cc(F)ccc1-c1cc(N2C[C@H](O)C[C@H]2CO)ncc1N(C)C(=O)C(C)(C)c1cccc(C(F)(F)F)c1 [Example 27, (2S,4R)-N-[4-(4-Fluoro-2-methyl-phenyl)-6-(4-hydroxy-2-hydroxymethyl-pyrrolidin-1-yl)-pyridin-3-yl]-N-methyl-2-(3-trifluoromethyl-phenyl)-isobutyramide] |  |  | 10.7 | 1.51 | 
Cc1ccccc1-c1cc(N2CC(F)(F)C[C@H]2CO)ncc1N(C)C(=O)C(C)(C)c1cc(C(F)(F)F)cc(C(F)(F)F)c1 [Example 299, (S)-2-(3,5-Bis-trifluoromethyl-phenyl)-N-[6-(4,4-difluoro-2-hydroxymethyl-pyrrolidin-1-yl)-4-o-tolyl-pyridin-3-yl]-N-methyl-isobutyramide] | 1.07 | 2.57 |  |  | 
CN(C(=O)C(C)(C)c1cc(C(F)(F)F)cc(C(F)(F)F)c1)c1cnc(N2CC[C@H](O)[C@H]2CO)cc1-c1ccc(F)cc1 [Example 266, (2R,3S)-2-(3,5-Bis-trifluoromethyl-phenyl)-N-[4-(4-fluoro-phenyl)-6-(3-hydroxy-2-hydroxymethyl-pyrrolidin-1-yl)-pyridin-3-yl]-N-methyl-isobutyramide] | 3.8 | 1.2 |  |  | 
CC(=O)N[C@@H]1CCN(c2cc(-c3ccccc3Cl)c(N(C)C(=O)C(C)(C)c3cc(C(F)(F)F)cc(C(F)(F)F)c3)cn2)C1 [Example 44, (R)-N-[6-(3-Acetylamino-pyrrolidin-1-yl)-4-(2-chloro-phenyl)-pyridin-3-yl]-2-(3,5-bis-trifluoromethyl-phenyl)-N-methyl-isobutyramide] |  |  | 15.5 | 0.631 | 
Cc1cc(F)ccc1-c1cc(N2CCC[C@H]2CO)ncc1N(C)C(=O)C(C)(C)c1cc(Cl)cc(OC(F)F)c1 [Example 38, (S)-2-(3-Chloro-5-difluoromethoxy-phenyl)-N-[4-(4-fluoro-2-methyl-phenyl)-6-(2-hydroxymethyl-pyrrolidin-1-yl)-pyridin-3-yl]-N-methyl-isobutyramide] |  |  | 2.24 | 3.55 | 
CN(C(=O)C(C)(C)c1cc(C(F)(F)F)cc(C(F)(F)F)c1)c1cnc(N2C[C@@H](O)C[C@H]2CO)cc1-c1ccccc1F [Example 242, (2S,4S)-2-(3,5-Bis-trifluoromethyl-phenyl)-N-[4-(2-fluoro-phenyl)-6-(4-hydroxy-2-hydroxymethyl-pyrrolidin-1-yl)-pyridin-3-yl]-N-methyl-isobutyramide] | 6.92 | 1.32 |  |  | 
Cc1ccccc1-c1cc(N2CC[C@@H](O)[C@@H](CO)C2)ncc1N(C)C(=O)C(C)(C)c1cc(C(F)(F)F)cc(C(F)(F)F)c1 (racemic) [Example 192, (3RS,4RS)-2-(3,5-Bis-trifluoromethyl-phenyl)-N-(4-hydroxy-3-hydroxymethyl-4′-o-tolyl-3,4,5,6-tetrahydro-2H-[1,2′]bipyridinyl-5′-yl)-N-methyl-isobutyramide] |  |  | 34.7 | 3.02 | 
CN(C(=O)C(C)(C)c1cc(C(F)(F)F)cc(C(F)(F)F)c1)c1cnc(N2C[C@@H](O)[C@H](O)C2)cc1-c1ccccc1Cl [Example 49, (3R,4R)-2-(3,5-Bis-trifluoromethyl-phenyl)-N-[4-(2-chloro-phenyl)-6-(3,4-dihydroxy-pyrrolidin-1-yl)-pyridin-3-yl]-N-methyl-isobutyramide] |  |  | 14.8 | 0.479 | 
CN(C(=O)C(C)(C)c1cc(Cl)cc(OC(F)F)c1)c1cnc(N2CCC[C@H]2CO)cc1-c1ccccc1Cl [Example 34, (S)-2-(3-Chloro-5-difluoromethoxy-phenyl)-N-[4-(2-chloro-phenyl)-6-(2-hydroxymethyl-pyrrolidin-1-yl)-pyridin-3-yl]-N-methyl-isobutyramide] |  |  | 0.832 | 3.89 | 
